Source: patent publication US12728124B2, “Medical use of cystic fibrosis transmembrane conductance regulator (CFTR) modulators” (priority 2020, dated 2026)

Assays:
CFTR [1] = biological target: T1, CFTR (Homo sapiens, UniProt P13569); test: CFTR expression by Western blotting in HPMECs stimulated with pneumolysin; type: cell-based; conditions: pretreated 10 μmol/L Ivacaftor 24 hours, then 0.25 μg/ml PLY for 18 h; Western blot
Experimental: CFTR expression in endothelial cells was assessed by Western blotting. HPMECs were grown in 6 well plates to confluence. The confluent cells were pretreated with 10 μmol/L Ivacaftor (Cayman chemical) for 24 hours and the next day were stimulated with 0.25 μg/ml PLY for 18 h. Cells were lysed in RIPA buffer and protein concentration was measured by BCA assay and samples were stored at −80° C. or immediately analysed by western blot. Western blots were performed using 7.5% gel. After gel transfer, the blot membrane was incubated for 1 h in 5% milk diluted in tris buffer saline with tween 0.1% (TBS-T) followed by incubation for 24 h with CFTR antibody as the primary antibody diluted 1:500 in TBS-T. The next day, the membrane was incubated for 2 h in donkey anti rabbit as the secondary antibody diluted 1:10000 in TBS-T.

[2] = tested on: human pulmonary microvascular endothelial cells (HPMECs); type: cell-based; conditions: pretreated 24 hours with 10 μmol/L Ivacaftor or 5 μmol/L Lumacaftor, then 0.25 μg/ml pneumolysin; vs pneumolysin alone
[3] = tested on: S. pneumoniae infected mice; test: S. pneumoniae infected mice, Ivacaftor pre-treatment: lung protein leakage, survival, BALF immune cells; type: in vivo, mouse
[4] = tested on: human pulmonary microvascular endothelial cells (HPMECs); test: Transendothelial electrical resistance (ECIS) of HPMECs stimulated with plasma from patients with severe COVID-19; type: cell-based; conditions: pretreated 24 hours with 10 μmol/L Ivacaftor or 5 μmol/L Lumacaftor, then 10% (v/v) severe COVID-19 plasma for 24 h
CFTR [5] = biological target: T2, CFTR (Mus musculus, UniProt P26361); test: CFTR expression by Western blotting in lungs of S. pneumoniae infected mice; type: in vivo; conditions: Ivacaftor 2 mg/kg i.p. pre-treatment; Western blot
T2 construct: Ivacaftor pre-treatment stabilized the expression of CFTR in lungs of mice infected with S. pneumoniae; from tissue; host or cells: mouse lung tissue (mice from Charles River, Germany)
T2 sequence (P26361 whole entry): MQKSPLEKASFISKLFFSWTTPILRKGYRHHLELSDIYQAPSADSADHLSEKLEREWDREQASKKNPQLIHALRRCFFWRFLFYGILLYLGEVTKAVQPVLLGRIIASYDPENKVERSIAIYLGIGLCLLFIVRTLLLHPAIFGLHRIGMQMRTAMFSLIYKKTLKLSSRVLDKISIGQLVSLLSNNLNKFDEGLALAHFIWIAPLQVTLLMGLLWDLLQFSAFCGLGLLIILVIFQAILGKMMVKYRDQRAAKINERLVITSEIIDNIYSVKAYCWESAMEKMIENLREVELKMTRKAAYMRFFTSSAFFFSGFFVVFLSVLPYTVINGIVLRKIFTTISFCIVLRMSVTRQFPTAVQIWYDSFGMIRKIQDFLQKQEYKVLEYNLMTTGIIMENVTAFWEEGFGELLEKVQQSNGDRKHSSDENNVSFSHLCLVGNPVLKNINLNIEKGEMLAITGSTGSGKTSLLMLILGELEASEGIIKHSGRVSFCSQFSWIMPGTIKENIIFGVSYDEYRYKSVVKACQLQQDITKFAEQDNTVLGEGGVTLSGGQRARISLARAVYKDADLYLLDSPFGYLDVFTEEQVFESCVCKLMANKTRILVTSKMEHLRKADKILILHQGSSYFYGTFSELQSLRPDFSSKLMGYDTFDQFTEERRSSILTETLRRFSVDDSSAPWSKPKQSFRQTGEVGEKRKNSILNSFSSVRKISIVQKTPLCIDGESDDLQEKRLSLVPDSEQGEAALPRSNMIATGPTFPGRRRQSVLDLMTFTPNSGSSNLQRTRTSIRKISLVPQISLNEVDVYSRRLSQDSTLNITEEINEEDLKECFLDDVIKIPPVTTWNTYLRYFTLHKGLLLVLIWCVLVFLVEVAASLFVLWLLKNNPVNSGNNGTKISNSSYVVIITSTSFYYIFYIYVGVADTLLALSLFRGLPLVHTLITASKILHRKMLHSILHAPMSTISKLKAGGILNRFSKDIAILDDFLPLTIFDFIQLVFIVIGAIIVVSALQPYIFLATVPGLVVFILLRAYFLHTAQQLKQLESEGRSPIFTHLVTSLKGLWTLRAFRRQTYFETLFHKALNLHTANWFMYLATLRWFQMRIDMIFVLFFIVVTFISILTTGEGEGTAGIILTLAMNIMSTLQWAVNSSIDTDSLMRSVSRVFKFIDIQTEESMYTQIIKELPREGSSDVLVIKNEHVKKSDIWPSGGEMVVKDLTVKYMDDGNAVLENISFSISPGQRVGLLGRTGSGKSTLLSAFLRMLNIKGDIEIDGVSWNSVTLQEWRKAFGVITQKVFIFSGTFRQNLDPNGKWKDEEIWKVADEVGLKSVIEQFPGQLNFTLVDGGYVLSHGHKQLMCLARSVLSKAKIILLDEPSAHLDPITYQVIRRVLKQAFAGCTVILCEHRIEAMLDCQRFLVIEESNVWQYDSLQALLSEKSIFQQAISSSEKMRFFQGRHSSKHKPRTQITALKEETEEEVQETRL

[6] = tested on: S. pneumoniae infected mice; test: S. pneumoniae infected mice, Ivacaftor post-treatment: lung protein leakage; type: in vivo, mouse; conditions: Ivacaftor 2 mg/kg i.p. post-treatment from 6 hours post-infection
[7] = tested on: human pulmonary microvascular endothelial cells (HPMECs); test: Endothelial calcium concentration (fura-2 340/380 ratio) in HPMECs stimulated with pneumolysin; type: cell-based; conditions: 10 μmol/L Ivacaftor for 30 min, then PLY 0.25 μg/ml for 30 min
Experimental: Permeability of endothelial cells has been additionally assessed by measuring the endothelial calcium concentration as follows: Increases in the endothelial calcium concentration represent a key mechanism that underlies the increase endothelial cell permeability. Increased endothelial calcium leads to contraction of the cells and increase gap formation between endothelial cells that lead to increased permeability. In this measurement, HPMECs were cultured in channel slides to confluence. The confluent cells were incubated for 30 min with Hanks Balanced Salt Solution containing 5% fetal bovine serum (FBS) and 10 μmol/L of the calcium sensitive dye fura-2-acetoxymethyl ester (fura-2AM) dissolved in Pluronic F-127 (20% solution in DMSO). The cells were then mounted in a heated chamber at 37° C. and perfused with Hank's salt solution containing 5% FBS with 10 μmol/L Ivacaftor (Cayman chemical) for 30 min followed by PLY (0.25 μg/ml) stimulation for 30 min. Fura-2 fluorescence was excited by monochromatic illumination at wavelength 340 and 380 nm. After background correction, the 340/380 ratio was calculated using TillVision 4.0 software (Till Photonics Germany) as a measure of endothelial calcium concentration. As positive or negative controls, cells were stimulated with only pneumolysin or non-treated cells were used, respectively.

CFTR [8] = biological target: T1, CFTR; test: CFTR expression by Western blotting in HPMECs stimulated with plasma from patients with severe COVID-19; type: cell-based; conditions: pretreated 10 μmol/L Ivacaftor 24 hours, then 20% (v/v) severe COVID-19 plasma for 24 h; Western blot, densitometry
Experimental: CFTR expression in endothelial cells was assessed by Western blotting. HPMECs were grown in 6 well plates to confluence. The confluent cells were pretreated with 10 μmol/L Ivacaftor (Cayman chemical) for 24 hours and the next day were stimulated with the above described plasma from COVID-19 patients or healthy donors for 24 h. As positive control, cells were stimulated with the plasma from COVID-19 patients alone (in the absence of CFTR modulators). Plasma samples were diluted to 20% (v/v) for CFTR immunoblotting.
Cells were lysed in RIPA buffer and protein concentration was measured by BCA assay and samples were stored at −80° C. or immediately analysed by Western blot. Western blots were performed using 7.5% gel. After gel transfer, the blot membrane was incubated for 1 h in 5% milk diluted in tris buffer saline with tween 0.1% (TBS-T) followed by incubation for 24 h with CFTR antibody as the primary antibody diluted 1:500 in TBS-T. The next day, the membrane was incubated for 2 h in donkey anti rabbit as the secondary antibody diluted 1:10000 in TBS-T.

[9] = Ivacaftor 2 mg/kg i.p. pre-treatment, S. pneumoniae infected mice, 48 h p.i., FACS

T1 sequence (P13569 whole entry, looked up): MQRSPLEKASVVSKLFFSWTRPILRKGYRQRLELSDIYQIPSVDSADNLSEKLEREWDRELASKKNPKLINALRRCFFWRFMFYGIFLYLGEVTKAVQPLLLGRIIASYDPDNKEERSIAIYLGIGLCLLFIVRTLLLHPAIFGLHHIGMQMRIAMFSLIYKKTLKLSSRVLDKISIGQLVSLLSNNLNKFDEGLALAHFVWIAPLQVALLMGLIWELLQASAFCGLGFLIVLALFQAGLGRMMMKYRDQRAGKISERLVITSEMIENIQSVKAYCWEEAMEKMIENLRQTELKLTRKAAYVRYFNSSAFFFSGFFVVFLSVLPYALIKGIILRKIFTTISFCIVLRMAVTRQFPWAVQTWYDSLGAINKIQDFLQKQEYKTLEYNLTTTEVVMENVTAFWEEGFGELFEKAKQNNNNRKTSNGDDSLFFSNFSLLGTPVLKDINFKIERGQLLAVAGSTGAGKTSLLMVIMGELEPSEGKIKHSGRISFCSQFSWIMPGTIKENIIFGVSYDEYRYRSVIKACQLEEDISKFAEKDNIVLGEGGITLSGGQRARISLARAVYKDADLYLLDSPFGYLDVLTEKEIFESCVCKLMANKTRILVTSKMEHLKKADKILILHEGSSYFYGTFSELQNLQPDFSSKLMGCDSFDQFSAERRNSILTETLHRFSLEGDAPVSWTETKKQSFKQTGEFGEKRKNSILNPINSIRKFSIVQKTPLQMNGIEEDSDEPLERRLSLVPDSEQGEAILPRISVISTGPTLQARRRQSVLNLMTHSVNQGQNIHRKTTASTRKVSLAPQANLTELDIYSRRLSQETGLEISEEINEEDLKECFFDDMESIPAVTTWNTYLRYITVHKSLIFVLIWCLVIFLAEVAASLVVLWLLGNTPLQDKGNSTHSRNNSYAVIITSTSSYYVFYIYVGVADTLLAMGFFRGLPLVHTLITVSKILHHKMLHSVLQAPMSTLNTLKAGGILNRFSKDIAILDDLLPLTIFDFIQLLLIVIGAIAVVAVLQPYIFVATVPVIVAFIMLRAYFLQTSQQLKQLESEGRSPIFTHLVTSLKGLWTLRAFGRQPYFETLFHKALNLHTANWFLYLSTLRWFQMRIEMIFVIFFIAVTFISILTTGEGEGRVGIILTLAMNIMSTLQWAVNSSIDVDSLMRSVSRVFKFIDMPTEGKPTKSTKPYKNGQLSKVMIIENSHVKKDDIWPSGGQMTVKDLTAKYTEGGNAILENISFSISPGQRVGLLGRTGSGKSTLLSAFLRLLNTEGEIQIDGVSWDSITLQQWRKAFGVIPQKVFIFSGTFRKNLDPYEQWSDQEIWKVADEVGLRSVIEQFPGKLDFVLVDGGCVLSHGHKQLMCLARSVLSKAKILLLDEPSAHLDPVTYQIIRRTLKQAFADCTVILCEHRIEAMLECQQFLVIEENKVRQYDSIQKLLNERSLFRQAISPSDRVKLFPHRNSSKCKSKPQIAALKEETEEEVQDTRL

Compound	CFTR expression in HPMECs after pneumolysin stimulation (CFTR [1])	transendothelial electrical resistance of HPMEC monolayer after pneumolysin stimulation [2]	survival rate in S. pneumoniae infected mice ([3]; Ivacaftor 2 mg/kg i.p. pre-treatment)	endogenous mouse serum albumin BALF/plasma ratio (protein leakage into the lung) ([3]; Ivacaftor 2 mg/kg i.p. pre-treatment from 24 h before infection, 48 h post infection with S. pneumoniae)	exogenous human serum albumin (HSA) BALF/plasma ratio (protein leakage into the lung) ([3]; Ivacaftor 2 mg/kg i.p. pre-treatment from 24 h before infection, HSA i.v. 1 h before BAL, 48 h post infection)	inflammatory macrophages in BALF [3, 9]	leukocytes in BALF [3, 9]	polymorphonuclear leukocytes (PMN) in BALF [3, 9]	transendothelial electrical resistance of HPMECs after stimulation with plasma from COVID-19 patients [4]	CFTR expression in lungs of S. pneumoniae infected mice (CFTR [5])	endogenous mouse serum albumin BALF/plasma ratio (protein leakage into the lung) ([6]; 48 h post infection with S. pneumoniae)	exogenous human serum albumin (HSA) BALF/plasma ratio (protein leakage into the lung) ([6]; HSA i.v. 1 h before BAL, 48 h post infection)	endothelial calcium concentration ([Ca2+]i) after pneumolysin stimulation [7]	CFTR expression in HPMECs after stimulation with plasma from COVID-19 patients (CFTR [8])
CC(C)(C)c1cc(C(C)(C)C)c(NC(=O)c2c[nH]c3ccccc3c2=O)cc1O [Ivacaftor, N-(5-hydroxy-2,4-ditert-butyl-phenyl)-4-oxo-1H-quinoline-3-carboxamide]	CFTR expression comparable to control cells	less reduced resistance	increased survival rate	reduced protein leakage into the lung	reduced protein leakage into the lung	decreased the levels of all three inflammatory cell subsets in the BALF	decreased the levels of all three inflammatory cell subsets in the BALF	decreased the levels of all three inflammatory cell subsets in the BALF	less reduced transendothelial electrical resistance	stabilized expression of CFTR	reduced protein leakage into the lung	reduced protein leakage into the lung	lesser increase	CFTR expression comparable to control cells
Cc1ccc(NC(=O)C2(c3ccc4c(c3)OC(F)(F)O4)CC2)nc1-c1cccc(C(=O)O)c1 [Lumacaftor, 3-[6-({[1-(2,2-difluoro-1,3-benzodioxol-5-yl)cyclopropyl]carbonyl}amino)-3-methylpyridin-2-yl]benzoic acid]		less reduced resistance							less reduced transendothelial electrical resistance					
